# Measured values published in ChEMBL document CHEMBL1909046, “DrugMatrix in vitro pharmacology data”.
# What was measured:
# [1] = biological target: T1, C-X-C chemokine receptor type 2 (Homo sapiens, UniProt P25025); type: cell membranes, Membrane; settings: cho-k1; further: in other assays of this panel Not Active means under 50% inhibition at 10 µM
# T1 sequence (P25025 whole entry): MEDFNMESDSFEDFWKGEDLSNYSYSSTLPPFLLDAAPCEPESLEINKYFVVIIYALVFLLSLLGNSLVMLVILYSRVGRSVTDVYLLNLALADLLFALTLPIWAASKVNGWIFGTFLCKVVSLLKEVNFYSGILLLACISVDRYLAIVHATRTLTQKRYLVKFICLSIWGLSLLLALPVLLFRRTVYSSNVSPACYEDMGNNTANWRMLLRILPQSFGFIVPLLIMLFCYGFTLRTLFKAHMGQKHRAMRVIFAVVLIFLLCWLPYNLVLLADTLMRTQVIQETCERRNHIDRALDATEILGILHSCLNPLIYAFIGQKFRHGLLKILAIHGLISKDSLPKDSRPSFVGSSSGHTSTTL
# [2] = DRUGMATRIX: Calcium Channel Type L, Phenylalkylamine radioligand binding (ligand: [3H] (-)-Desmethoxyverapamil (D-888)); type: cell membranes, Rattus norvegicus, Wistar, Brain, Membrane; settings: Not Active = under 50% inhibition at 10 µM
# [3] = DRUGMATRIX: Sigma2 radioligand binding (ligand: [3H] Ifenprodil); type: cell membranes, Rattus norvegicus, Wistar, Brain, Membrane; settings: Not Active = under 50% inhibition at 10 µM
# [4] = biological target: Voltage-gated inwardly rectifying potassium channel KCNH2 (Homo sapiens, UniProt Q12809); settings: hek293; further: in other assays of this panel Not Active means under 50% inhibition at 10 µM
# [5] = biological target: T2, Neuropeptide Y receptor type 2 (Homo sapiens, UniProt P49146); type: cell membranes, Membrane; settings: kan-ts; further: in other assays of this panel Not Active means under 50% inhibition at 10 µM
# T2 sequence (P49146 whole entry): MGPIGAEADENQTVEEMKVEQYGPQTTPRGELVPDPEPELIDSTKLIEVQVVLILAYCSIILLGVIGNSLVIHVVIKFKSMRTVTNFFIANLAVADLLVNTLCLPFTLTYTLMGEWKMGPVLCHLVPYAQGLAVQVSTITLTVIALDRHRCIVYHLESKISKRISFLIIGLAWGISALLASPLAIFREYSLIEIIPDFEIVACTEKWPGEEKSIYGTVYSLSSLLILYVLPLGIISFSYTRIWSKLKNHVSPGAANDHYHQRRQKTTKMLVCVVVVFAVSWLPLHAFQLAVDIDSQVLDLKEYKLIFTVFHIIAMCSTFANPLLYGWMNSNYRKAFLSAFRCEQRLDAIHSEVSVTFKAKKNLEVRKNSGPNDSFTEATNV
# Progesterone receptor = biological target: T3, Progesterone receptor (Bos taurus, UniProt Q690N0); test: DRUGMATRIX: Progesterone radioligand binding (ligand: [3H] R-5020); type: tissue-based, Uterus; settings: Not Active = under 50% inhibition at 10 µM; for Ki: read-out: Ki
# T3 sequence (Q690N0 whole entry): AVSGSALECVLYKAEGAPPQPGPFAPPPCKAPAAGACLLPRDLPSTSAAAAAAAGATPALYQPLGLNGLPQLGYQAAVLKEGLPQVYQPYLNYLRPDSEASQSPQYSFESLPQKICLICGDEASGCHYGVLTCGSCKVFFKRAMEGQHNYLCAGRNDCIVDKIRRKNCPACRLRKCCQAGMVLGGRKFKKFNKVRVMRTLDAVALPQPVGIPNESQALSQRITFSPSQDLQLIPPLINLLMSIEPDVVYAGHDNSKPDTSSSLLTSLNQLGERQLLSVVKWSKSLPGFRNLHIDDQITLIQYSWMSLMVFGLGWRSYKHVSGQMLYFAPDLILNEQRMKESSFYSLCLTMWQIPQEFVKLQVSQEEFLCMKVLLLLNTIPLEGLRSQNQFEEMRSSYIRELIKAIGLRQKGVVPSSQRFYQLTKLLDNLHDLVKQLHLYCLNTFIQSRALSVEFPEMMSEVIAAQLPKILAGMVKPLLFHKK
# Cytochrome P450 2C19 = Cytochrome P450 2C19 (Homo sapiens, UniProt P33261); settings: bti-tn-5b1-4; further: in other assays of this panel Not Active means under 50% inhibition at 10 µM
# Cytochrome P450 2C19, sequence (P33261 whole entry): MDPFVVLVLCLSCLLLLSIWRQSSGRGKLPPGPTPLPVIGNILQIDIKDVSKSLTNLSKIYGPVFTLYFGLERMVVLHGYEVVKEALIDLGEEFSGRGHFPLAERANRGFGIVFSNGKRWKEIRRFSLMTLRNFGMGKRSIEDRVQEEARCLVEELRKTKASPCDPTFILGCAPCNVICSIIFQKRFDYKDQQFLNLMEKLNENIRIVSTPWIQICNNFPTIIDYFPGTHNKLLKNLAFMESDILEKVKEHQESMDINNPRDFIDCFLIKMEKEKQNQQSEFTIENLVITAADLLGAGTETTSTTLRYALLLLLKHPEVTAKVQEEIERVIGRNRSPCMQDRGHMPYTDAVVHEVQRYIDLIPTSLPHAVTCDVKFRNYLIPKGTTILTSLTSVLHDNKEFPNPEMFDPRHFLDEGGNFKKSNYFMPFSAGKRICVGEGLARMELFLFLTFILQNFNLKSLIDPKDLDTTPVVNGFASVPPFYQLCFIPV
# Voltage-gated inwardly rectifying potassium channel KCNH2, sequence (Q12809 whole entry): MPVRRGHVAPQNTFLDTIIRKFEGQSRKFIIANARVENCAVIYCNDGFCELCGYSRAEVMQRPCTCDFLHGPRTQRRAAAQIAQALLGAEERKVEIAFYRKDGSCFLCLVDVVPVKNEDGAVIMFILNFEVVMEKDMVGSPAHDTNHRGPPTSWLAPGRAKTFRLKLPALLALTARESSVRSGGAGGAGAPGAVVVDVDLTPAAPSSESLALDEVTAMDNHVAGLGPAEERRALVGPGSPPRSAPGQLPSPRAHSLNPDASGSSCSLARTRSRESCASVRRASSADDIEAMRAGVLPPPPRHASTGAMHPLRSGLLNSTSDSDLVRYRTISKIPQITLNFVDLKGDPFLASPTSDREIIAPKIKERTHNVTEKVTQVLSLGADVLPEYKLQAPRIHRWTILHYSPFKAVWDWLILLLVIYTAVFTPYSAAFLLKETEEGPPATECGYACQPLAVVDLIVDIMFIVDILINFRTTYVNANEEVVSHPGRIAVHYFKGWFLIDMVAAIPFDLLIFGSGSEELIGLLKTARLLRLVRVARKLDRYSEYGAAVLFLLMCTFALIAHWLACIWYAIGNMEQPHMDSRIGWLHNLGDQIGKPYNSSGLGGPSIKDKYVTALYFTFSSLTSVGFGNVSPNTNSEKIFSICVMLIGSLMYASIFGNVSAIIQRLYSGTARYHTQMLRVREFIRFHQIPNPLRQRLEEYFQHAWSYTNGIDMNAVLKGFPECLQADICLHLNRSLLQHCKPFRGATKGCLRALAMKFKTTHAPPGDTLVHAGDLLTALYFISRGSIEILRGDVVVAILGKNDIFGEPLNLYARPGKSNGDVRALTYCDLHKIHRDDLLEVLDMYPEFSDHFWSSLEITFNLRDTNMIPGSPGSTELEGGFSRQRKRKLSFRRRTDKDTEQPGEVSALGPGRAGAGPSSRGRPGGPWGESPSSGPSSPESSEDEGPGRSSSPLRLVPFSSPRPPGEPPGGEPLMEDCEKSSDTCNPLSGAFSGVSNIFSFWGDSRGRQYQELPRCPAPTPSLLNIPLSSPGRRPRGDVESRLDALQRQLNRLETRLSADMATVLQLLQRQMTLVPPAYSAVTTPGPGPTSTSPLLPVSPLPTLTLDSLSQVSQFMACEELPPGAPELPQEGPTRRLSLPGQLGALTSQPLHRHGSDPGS
Structure (SMILES),IC50 [1],IC50 [2],Ki [2],IC50 [3],Ki [3],IC50 [4],Ki [4],IC50 [5],IC50 (Progesterone receptor),IC50 (Cytochrome P450 2C19),Ki (Cytochrome P450 2C19),IC50 ([2]; read-out: IC50) [µM],Ki ([2]; read-out: Ki) [µM],IC50 (Progesterone receptor; read-out: IC50) [µM],Ki (Progesterone receptor) [µM]
CCOc1nc2cccc(C(=O)O)c2n1Cc1ccc(-c2ccccc2-c2nnn[nH]2)cc1,Not Active,Not Active,Not Active,Not Active,Not Active,Not Active,Not Active,Not Active,Not Active,–,–,–,–,–,–
O=C(O)CCCc1cccs1,Not Active,Not Active,Not Active,Not Active,Not Active,Not Active,Not Active,Not Active,Not Active,Not Active,Not Active,–,–,–,–
COc1ccccc1N,Not Active,Not Active,Not Active,Not Active,Not Active,Not Active,Not Active,Not Active,Not Active,Not Active,Not Active,–,–,–,–
O=C(c1ccccc1F)N1CCC(Cc2ccccc2)CC1,Not Active,Not Active,Not Active,Not Active,Not Active,Not Active,Not Active,Not Active,Not Active,–,–,–,–,–,–
Cc1c(O)cccc1C(=O)N[C@@H](CSc1ccccc1)[C@H](O)CN1C[C@H]2CCCC[C@H]2C[C@H]1C(=O)NC(C)(C)C,Not Active,–,–,Not Active,Not Active,Not Active,Not Active,Not Active,–,Not Active,Not Active,18.4,17.9,44.5,5.8
NC12CC3CC(CC(C3)C1)C2 [AMANTADINE],Not Active,Not Active,Not Active,Not Active,Not Active,Not Active,Not Active,Not Active,Not Active,–,–,–,–,–,–
NCCCNCCSP(=O)(O)O [AMIFOSTINE],Not Active,Not Active,Not Active,Not Active,Not Active,Not Active,Not Active,Not Active,–,Not Active,Not Active,–,–,–,–
CN(C)CCC=C1c2ccccc2CCc2ccccc21 [AMITRIPTYLINE],Not Active,–,–,Not Active,Not Active,–,–,Not Active,Not Active,Not Active,Not Active,0.84,0.816,–,–
CC(C)c1c(C(=O)Nc2ccccc2)c(-c2ccccc2)c(-c2ccc(F)cc2)n1CC[C@@H](O)C[C@@H](O)CC(=O)O [ATORVASTATIN],Not Active,Not Active,Not Active,Not Active,Not Active,–,–,Not Active,Not Active,–,–,–,–,–,–
C#C[C@]1(O)CC[C@H]2[C@@H]3CCC4=CC(=O)CC[C@]4(C)[C@H]3CC[C@@]21C [ETHISTERONE],Not Active,Not Active,Not Active,Not Active,Not Active,–,–,Not Active,–,Not Active,Not Active,–,–,0.059,0.00775
CC(O)(P(=O)(O)O)P(=O)(O)O [ETIDRONIC ACID],Not Active,Not Active,Not Active,Not Active,Not Active,Not Active,Not Active,Not Active,–,Not Active,Not Active,–,–,–,–
CC(C)(C(=O)O)c1ccc(C(O)CCCN2CCC(C(O)(c3ccccc3)c3ccccc3)CC2)cc1 (stereo unspecified) [FEXOFENADINE],Not Active,Not Active,Not Active,Not Active,Not Active,–,–,Not Active,Not Active,–,–,–,–,–,–
CC(=O)OCC(=O)[C@@]12OC(C)(C)O[C@@H]1C[C@H]1[C@@H]3C[C@H](F)C4=CC(=O)C=C[C@]4(C)[C@@]3(F)[C@@H](O)C[C@@]12C [FLUOCINONIDE],Not Active,Not Active,Not Active,Not Active,Not Active,Not Active,Not Active,Not Active,–,–,–,–,–,0.022,0.0029
N[C@@H](Cn1ccc(=O)c(O)c1)C(=O)O [L-MIMOSINE],Not Active,Not Active,Not Active,Not Active,Not Active,Not Active,Not Active,Not Active,Not Active,–,–,–,–,–,–
CCn1cc(C(=O)O)c(=O)c2cc(F)c(N3CCNC(C)C3)c(F)c21 (stereo unspecified) [LOMEFLOXACIN],Not Active,Not Active,Not Active,Not Active,Not Active,–,–,Not Active,Not Active,Not Active,Not Active,–,–,–,–
C[C@@H]1C/C=C/C=C/C=C/C=C/[C@H](O[C@@H]2O[C@H](C)[C@@H](O)[C@H](N)[C@@H]2O)C[C@@H]2O[C@](O)(C[C@@H](O)C[C@H]3O[C@@H]3/C=C/C(=O)O1)C[C@H](O)[C@H]2C(=O)O [NATAMYCIN],Not Active,Not Active,Not Active,Not Active,Not Active,Not Active,Not Active,Not Active,Not Active,–,–,–,–,–,–
COc1ccc2c(c1OC)C(=O)O[C@@H]2[C@H]1c2c(cc3c(c2OC)OCO3)CCN1C [NOSCAPINE],Not Active,Not Active,Not Active,Not Active,Not Active,Not Active,Not Active,Not Active,Not Active,–,–,–,–,–,–
N=C(N)c1ccc(OCCCCCOc2ccc(C(=N)N)cc2)cc1 [PENTAMIDINE],Not Active,–,–,Not Active,Not Active,–,–,Not Active,Not Active,Not Active,Not Active,1.39,1.35,–,–
NNCCc1ccccc1 [PHENELZINE],Not Active,Not Active,Not Active,Not Active,Not Active,Not Active,Not Active,Not Active,Not Active,–,–,–,–,–,–
CCN(CC)CCNC(=O)c1ccc(N)cc1 [PROCAINAMIDE],Not Active,Not Active,Not Active,Not Active,Not Active,Not Active,Not Active,Not Active,Not Active,–,–,–,–,–,–
C[C@]12C=CC(=O)C=C1CC[C@H]1[C@@H]3C[C@@H](O)[C@](O)(C(=O)CO)[C@@]3(C)C[C@H](O)[C@@]12F [TRIAMCINOLONE],Not Active,Not Active,Not Active,Not Active,Not Active,Not Active,Not Active,Not Active,Not Active,–,–,–,–,–,–
